In PMC11273936, “The Antimicrobial Peptide Capitellacin: Chemical Synthesis of Analogues to Probe the Role of Disulphide Bridges and Their Replacement with Vinyl Sulphides” (Antibiotics, 2024):
Values after ≈ are worked out from the molar mass of the structure shown.

Tests used:
C. albicans SC5314 = assay: MIC assay, fungus (CLSI broth microdilution); format: cell-based; settings: Candida albicans, RPMI 1640, 35 °C, 48 h, 0.5 x 10^3 to 2.5 x 10^3 CFU/mL, triplicate, three independent assays, read-out: Minimum Inhibitory Concentrations, C. albicans SC5314 (reference strain)
S. aureus ATCC 25913 = assay: MIC assay, bacteria (CLSI broth microdilution); format: cell-based; settings: Staphylococcus aureus, ATCC25913, Gram positive, CA-MHB, 37 °C with shaking, 18 h, ~5 x10^5 CFU/mL, triplicate, three biological replicates, read-out: Minimum Inhibitory Concentrations, S. aureus ATCC 25913
E. coli ATCC 25922 = assay: MIC assay, bacteria (CLSI broth microdilution); format: cell-based, Escherichia coli; settings: Gram negative, CA-MHB, 37 °C with shaking, 18 h, ~5 x10^5 CFU/mL, triplicate, three biological replicates
P. aeruginosa SVB-B9 = assay: MIC assay, bacteria (CLSI broth microdilution); format: cell-based, Pseudomonas aeruginosa; settings: Gram negative, CA-MHB, 37 °C with shaking, 18 h, ~5 x10^5 CFU/mL, triplicate, three biological replicates

Compound: C[C@@H]1[C@H](O)[C@@H](C)/C=C/C=C/C=C/C=C/C=C/C=C/C=C/[C@H](O[C@@H]2O[C@H](C)[C@@H](O)[C@H](N)[C@@H]2O)C[C@@H]2O[C@](O)(C[C@@H](O)C[C@@H](O)[C@H](O)CC[C@@H](O)C[C@@H](O)CC(=O)O[C@H]1C)C[C@H](O)[C@H]2C(=O)O [AMB, amphotericin B]
- MIC (C. albicans SC5314): 1 µM (≈ 0.924 µg/mL)

Compound: CC1(C)S[C@@H]2[C@H](NC(=O)[C@H](N)c3ccc(O)cc3)C(=O)N2[C@H]1C(=O)O [AMX, amoxicillin]
- MIC (S. aureus ATCC 25913): 2 µM (≈ 0.731 µg/mL)

Compound: polymyxin B [PMB]
- Minimum Inhibitory Concentrations, E. coli ATCC 25922 (E. coli ATCC 25922): 0.125 µM
- Minimum Inhibitory Concentrations, P. aeruginosa SVB-B9 (type strain) (P. aeruginosa SVB-B9): 0.125 µM
